The species entered for this assay is Mus musculus. Briefly: Minimum effective dose for anti-hyperglycaemic activity was determined in C57B1/6 ob/ob obese mouse. The assay is classed as functional.

The compound `O=C1NC(=O)C(Cc2ccc3c(c2)CC[C@H](Cc2ccccc2)O3)S1` (stereo partly drawn) [ENGLITAZONE] showed an MED of 200 uM.kg/diet. Under `CC1(COc2ccc(CC3SC(=O)NC3=O)cc2)CCCCC1` (stereo not drawn) [CIGLITAZONE] stands 3000 uM.kg/diet. Under `CN(CCOc1ccc(CC2SC(=O)NC2=O)cc1)c1nc2ccccc2o1` (stereo not drawn) [BRL-48482] stands 3 uM.kg/diet. As to `O=C(NCCOc1ccc(CC2SC(=O)NC2=O)cc1)Nc1ccccc1` (stereo not drawn), the MED was 100 uM.kg/diet. Under `CCc1ccc(CCOc2ccc(CC3SC(=O)NC3=O)cc2)nc1` (stereo not drawn) [PIOGLITAZONE] stands 200 uM.kg/diet. Under `CN(CCOc1ccc(CC2SC(=O)NC2=O)cc1)c1ccccn1` (stereo not drawn) [ROSIGLITAZONE] stands 3 µM/kg; under `Cc1c(C)c2c(c(C)c1O)CCC(C)(COc1ccc(CC3SC(=O)NC3=O)cc1)O2` (stereo not drawn) [TROGLITAZONE], 600 uM.kg/diet; under `CC1(COc2ccc(CC3SC(=O)NC3=O)cc2)CCCC(O)C1` (stereo not drawn), 500 uM.kg/diet.

Source of the values: ChEMBL document CHEMBL1150042, “The synthesis of BRL 49653 - a novel and potent antihyperglycaemic agent” (Bioorg Med Chem Lett, 1994).
